{"source": "ChEMBL document CHEMBL4028852", "about": "“Design of a Chemical Probe for the Bromodomain and Plant Homeodomain Finger-Containing (BRPF) Family of Proteins” (J Med Chem, 2017)", "key": {"Peregrin (Homo sapiens)": {"biological_target": "T1, Peregrin (Homo sapiens) (UniProt P55201)", "T1 sequence (whole entry)": "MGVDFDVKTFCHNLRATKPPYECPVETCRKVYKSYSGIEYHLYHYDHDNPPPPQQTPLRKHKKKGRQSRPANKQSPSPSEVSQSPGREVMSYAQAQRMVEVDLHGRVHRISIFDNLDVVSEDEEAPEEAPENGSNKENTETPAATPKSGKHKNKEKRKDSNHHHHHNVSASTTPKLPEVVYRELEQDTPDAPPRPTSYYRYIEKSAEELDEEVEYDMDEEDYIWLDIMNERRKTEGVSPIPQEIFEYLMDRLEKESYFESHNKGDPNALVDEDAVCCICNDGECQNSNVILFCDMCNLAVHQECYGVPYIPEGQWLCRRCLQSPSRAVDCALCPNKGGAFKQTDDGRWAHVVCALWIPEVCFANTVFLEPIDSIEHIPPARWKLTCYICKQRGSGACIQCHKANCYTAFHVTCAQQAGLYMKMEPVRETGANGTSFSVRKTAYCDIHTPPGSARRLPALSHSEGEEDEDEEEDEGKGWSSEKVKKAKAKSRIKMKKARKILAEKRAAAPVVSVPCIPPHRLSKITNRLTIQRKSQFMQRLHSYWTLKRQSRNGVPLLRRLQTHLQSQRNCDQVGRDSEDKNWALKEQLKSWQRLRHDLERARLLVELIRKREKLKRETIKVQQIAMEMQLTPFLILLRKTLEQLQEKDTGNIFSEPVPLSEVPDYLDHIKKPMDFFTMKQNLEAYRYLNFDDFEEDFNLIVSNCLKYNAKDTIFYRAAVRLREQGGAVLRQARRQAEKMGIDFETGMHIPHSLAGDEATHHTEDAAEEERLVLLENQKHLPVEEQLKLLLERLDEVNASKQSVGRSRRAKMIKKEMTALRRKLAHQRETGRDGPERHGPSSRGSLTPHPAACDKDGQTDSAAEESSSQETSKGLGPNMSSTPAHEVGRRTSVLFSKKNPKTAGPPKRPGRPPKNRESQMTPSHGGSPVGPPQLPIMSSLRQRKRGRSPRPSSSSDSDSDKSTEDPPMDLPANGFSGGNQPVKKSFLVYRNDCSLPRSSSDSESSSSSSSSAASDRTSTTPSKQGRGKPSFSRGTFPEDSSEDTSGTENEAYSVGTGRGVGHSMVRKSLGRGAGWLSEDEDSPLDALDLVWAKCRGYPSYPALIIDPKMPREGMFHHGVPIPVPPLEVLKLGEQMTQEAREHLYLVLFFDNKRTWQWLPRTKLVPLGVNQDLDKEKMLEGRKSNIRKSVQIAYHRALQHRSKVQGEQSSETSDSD", "description": "Binding affinity to BRPF1 (unknown origin) assessed as change in melting temperature at 10 uM by differential scanning fluorimetry based thermal shift assay"}, "Peregrin": {"biological_target": "T2, Peregrin (Homo sapiens, UniProt P55201)", "T2 sequence (P55201 whole entry)": "T1 sequence (whole entry)", "assay": "Inhibition of human BRPF1 (627 to 740 residues) expressed in Escherichia coli BL21 after 1 hr by BROMOscan assay"}, "[1]": {"biological_target": "T3, Bromodomain-containing protein 9 (Homo sapiens, UniProt Q9H8M2)", "T3 sequence (Q9H8M2 whole entry)": "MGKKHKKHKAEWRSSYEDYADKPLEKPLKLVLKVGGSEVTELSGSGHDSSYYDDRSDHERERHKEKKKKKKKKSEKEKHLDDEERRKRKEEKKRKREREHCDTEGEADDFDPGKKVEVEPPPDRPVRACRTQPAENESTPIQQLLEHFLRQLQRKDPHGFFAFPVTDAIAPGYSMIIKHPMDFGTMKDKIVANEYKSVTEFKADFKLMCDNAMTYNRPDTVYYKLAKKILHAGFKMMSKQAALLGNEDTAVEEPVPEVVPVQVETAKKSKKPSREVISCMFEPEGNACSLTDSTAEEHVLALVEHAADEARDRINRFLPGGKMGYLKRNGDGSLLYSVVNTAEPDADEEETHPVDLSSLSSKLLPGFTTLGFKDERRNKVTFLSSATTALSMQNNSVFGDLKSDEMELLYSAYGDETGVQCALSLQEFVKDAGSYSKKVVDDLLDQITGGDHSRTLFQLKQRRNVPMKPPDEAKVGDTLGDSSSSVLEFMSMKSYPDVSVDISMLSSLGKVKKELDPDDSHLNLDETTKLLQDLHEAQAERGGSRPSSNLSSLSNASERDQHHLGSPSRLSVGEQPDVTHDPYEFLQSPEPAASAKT", "description": "Inhibition of human BRD9 (130 to 259 residues) expressed in Escherichia coli BL21 after 1 hr by BROMOscan assay"}, "[2]": {"biological_target": "T4, Bromodomain-containing protein 1 (Homo sapiens, UniProt O95696)", "T4 sequence (O95696 whole entry)": "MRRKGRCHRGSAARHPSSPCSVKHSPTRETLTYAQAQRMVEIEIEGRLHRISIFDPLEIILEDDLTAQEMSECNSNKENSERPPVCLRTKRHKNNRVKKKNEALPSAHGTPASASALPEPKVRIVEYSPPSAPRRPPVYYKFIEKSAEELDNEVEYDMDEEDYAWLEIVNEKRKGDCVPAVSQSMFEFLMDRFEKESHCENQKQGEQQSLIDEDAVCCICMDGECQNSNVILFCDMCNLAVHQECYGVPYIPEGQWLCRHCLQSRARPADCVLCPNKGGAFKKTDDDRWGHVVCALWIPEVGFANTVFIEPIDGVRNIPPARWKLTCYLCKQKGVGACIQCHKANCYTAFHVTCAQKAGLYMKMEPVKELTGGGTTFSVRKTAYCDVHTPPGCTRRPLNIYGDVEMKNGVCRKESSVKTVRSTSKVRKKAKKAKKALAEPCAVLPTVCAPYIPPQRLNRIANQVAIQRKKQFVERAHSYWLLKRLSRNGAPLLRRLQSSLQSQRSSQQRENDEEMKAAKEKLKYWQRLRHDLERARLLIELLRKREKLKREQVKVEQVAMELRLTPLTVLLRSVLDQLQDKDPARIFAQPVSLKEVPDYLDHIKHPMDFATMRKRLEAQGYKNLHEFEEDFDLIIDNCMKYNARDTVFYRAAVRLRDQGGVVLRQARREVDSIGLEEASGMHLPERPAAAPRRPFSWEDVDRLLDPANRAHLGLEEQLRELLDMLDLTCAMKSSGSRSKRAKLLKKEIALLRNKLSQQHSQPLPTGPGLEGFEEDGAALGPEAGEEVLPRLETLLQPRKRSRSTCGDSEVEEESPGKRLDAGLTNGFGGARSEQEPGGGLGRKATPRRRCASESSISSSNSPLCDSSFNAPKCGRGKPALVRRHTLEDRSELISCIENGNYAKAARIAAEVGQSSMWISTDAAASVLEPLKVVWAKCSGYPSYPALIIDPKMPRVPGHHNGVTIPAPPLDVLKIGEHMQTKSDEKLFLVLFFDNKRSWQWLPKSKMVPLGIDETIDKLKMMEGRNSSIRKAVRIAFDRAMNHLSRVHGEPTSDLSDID", "assay": "Inhibition of human BRPF2 (556 to 688 residues) expressed in Escherichia coli BL21 after 1 hr by BROMOscan assay"}}, "data": [{"compound": "Cn1c(=O)ccc2cc(S(=O)(=O)Nc3ccccc3)ccc21", "values": [{"measurement": "ΔTm", "setting": "Peregrin (Homo sapiens)", "result": 3.5, "unit": "°C"}, {"measurement": "IC50", "setting": "Peregrin", "result": 1000, "unit": "nM"}, {"measurement": "IC50", "setting": "[1]", "result": 9.8, "unit": "µM"}, {"measurement": "IC50", "setting": "[2]", "result": 7.8, "unit": "µM"}]}, {"compound": "COc1cc(C#N)ccc1S(=O)(=O)Nc1ccc2c(c1)cc(C)c(=O)n2C", "values": [{"measurement": "ΔTm", "setting": "Peregrin (Homo sapiens)", "result": 12.3, "unit": "°C"}, {"measurement": "IC50", "setting": "Peregrin", "result": 3.1, "unit": "nM"}, {"measurement": "IC50", "setting": "[1]", "result": 0.52, "unit": "µM"}, {"measurement": "IC50", "setting": "[2]", "result": 0.046, "unit": "µM"}]}, {"compound": "COc1cc(C#N)ccc1S(=O)(=O)Nc1ccc2c(c1)cc(C(C)C)c(=O)n2C", "values": [{"measurement": "IC50", "setting": "Peregrin", "result": 170, "unit": "nM"}, {"measurement": "IC50", "setting": "[1]", "result": 9.3, "unit": "µM"}, {"measurement": "IC50", "setting": "[2]", "result": 3.3, "unit": "µM"}]}]}
